Columns and labels:
[1] = molecular target: T1, Axl (Homo sapiens, UniProt P30530); experiment: Biochemical potency, HTRF KinEASE-TK kinase assay; design: purchased Invitrogen; conditions: 5 nM AXL, 700 μM ATP
T1 sequence (P30530 26-894): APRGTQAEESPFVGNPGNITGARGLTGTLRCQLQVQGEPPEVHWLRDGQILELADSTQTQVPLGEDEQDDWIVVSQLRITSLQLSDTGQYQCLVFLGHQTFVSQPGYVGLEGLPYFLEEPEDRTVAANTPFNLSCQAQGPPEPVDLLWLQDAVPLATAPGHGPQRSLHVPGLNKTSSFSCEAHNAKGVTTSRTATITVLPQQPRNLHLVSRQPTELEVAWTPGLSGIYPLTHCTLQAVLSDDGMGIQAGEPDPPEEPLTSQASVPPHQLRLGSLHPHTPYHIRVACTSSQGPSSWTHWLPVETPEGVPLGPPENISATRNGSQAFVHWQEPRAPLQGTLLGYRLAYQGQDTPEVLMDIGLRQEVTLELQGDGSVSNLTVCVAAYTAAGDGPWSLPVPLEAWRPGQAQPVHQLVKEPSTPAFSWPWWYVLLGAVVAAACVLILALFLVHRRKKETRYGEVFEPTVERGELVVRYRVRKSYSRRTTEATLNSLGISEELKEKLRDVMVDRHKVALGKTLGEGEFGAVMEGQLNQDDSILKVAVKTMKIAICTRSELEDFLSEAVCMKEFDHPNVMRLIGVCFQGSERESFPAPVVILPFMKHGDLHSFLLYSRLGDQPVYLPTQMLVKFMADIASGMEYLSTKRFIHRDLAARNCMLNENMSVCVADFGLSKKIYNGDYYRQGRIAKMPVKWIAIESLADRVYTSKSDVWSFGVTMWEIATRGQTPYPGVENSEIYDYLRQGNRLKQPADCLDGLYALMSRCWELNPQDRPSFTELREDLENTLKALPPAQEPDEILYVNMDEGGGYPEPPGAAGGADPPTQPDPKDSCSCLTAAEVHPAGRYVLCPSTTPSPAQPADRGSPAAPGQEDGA
Method in brief: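 Phosphorylation of a biotinylated tyrosine-kinase peptide (800 nM) by AXL (5 nM) or TYRO3/MER (1 nM) is measured at 700 µM ATP after 2 h at room temperature, following 1 h enzyme–compound preincubation. Signal is the time-resolved FRET ratio, converted to percent activity.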

[2] = molecular target: T2, p-AXL (Homo sapiens, UniProt P30530); experiment: Axl phosphorylation inhibition ELISA in HEK293T cells transfected with NanoLuc-tagged AXL; type: cell-based; conditions: 1 h compound incubation, media (OptiMEM)
T2 construct: expressed in transfected cells; host or cells: HEK293T
T2 sequence (P30530 26-894): T1 sequence (P30530 26-894)
Method in brief: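 HEK293T cells transiently transfected one day earlier with NanoLuc-tagged AXL were exposed to 22-point 2-fold compound dilutions for 1 h at 37° C (70,000 cells/well), then lysed. Lysates captured on anti-phospho-tyrosine coated plates for 2 h; bound p-AXL read by NanoLuc luminescence; IC50 from 4-parameter logistic fit.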

Structure (SMILES)	IC50 [1] [nM]	IC50 [2] [nM]
Cc1cc(-c2n[nH]c3ncc(-c4ccc5c(c4)CC[C@@H](N4C6COCC4C6)CC5)cc23)ccc1-c1ccccn1 [Example 159, 6-[(7S)-2-{3-[3-Methyl-4-(pyridin-2-yl)phenyl]-2H-pyrazolo[3,4-b]pyridin-5-yl}-6,7,8,9-tetrahydro-5H-benzo[7]annulen-7-yl]-3-oxa-6-azabicyclo[3.1.1]heptane]	< 100	100 to 1000
Cc1cccnc1-c1ccc(-c2n[nH]c3ncc(-c4ccc5c(c4)CC[C@@](C)(N4CCC[C@H]4C)CC5)cc23)cc1 [Example 163, 3-Methyl-2-(4-{5-[(7S)-7-methyl-7-[(2R)-2-methylpyrrolidin-1-yl]-6,7,8,9-tetrahydro-5H-benzo[7]annulen-2-yl]-2H-pyrazolo[3,4-b]pyridin-3-yl}phenyl)pyridine]	< 100	< 100
COc1cccnc1-c1ccc(-c2c[nH]c3ncc(-c4ccc5c(c4)CC[C@@H](N4C6COCC4C6)CC5)cc23)cc1 [Example 164, 6-[(7S)-2-{3-[4-(3-Methoxypyridin-2-yl)phenyl]-1H-pyrrolo[2,3-b]pyridin-5-yl}-6,7,8,9-tetrahydro-5H-benzo[7]annulen-7-yl]-3-oxa-6-azabicyclo[3.1.1]heptane]	< 100	< 100
CN(C)C(=O)c1cccnc1-c1ccc(-c2c[nH]c3ncc(-c4ccc5c(c4)CC[C@@H](N4C6COCC4C6)CC5)cc23)cc1 [Example 165, N,N-Dimethyl-2-(4-{5-[(7S)-7-{3-oxa-6-azabicyclo[3.1.1]heptan-6-yl}-6,7,8,9-tetrahydro-5H-benzo[7]annulen-2-yl]-1H-pyrrolo[2,3-b]pyridin-3-yl}phenyl)pyridine-3-carboxamide]	< 100	< 100
COc1cccnc1-c1ccc(-c2n[nH]c3ncc(-c4ccc5c(c4)CC[C@@H](N4C6COCC4C6)CC5)cc23)cc1 [Example 166, 6-[(7S)-2-{3-[4-(3-Methoxypyridin-2-yl)phenyl]-1H-pyrazolo[3,4-b]pyridin-5-yl}-6,7,8,9-tetrahydro-5H-benzo[7]annulen-7-yl]-3-oxa-6-azabicyclo[3.1.1]heptane]	< 100	< 100
CN(C)C(=O)c1cccnc1-c1ccc(-c2n[nH]c3ncc(-c4ccc5c(c4)CC[C@@H](N4C6COCC4C6)CC5)cc23)cc1 [Example 167, N,N-Dimethyl-2-(4-{5-[(7S)-7-{3-oxa-6-azabicyclo[3.1.1]heptan-6-yl}-6,7,8,9-tetrahydro-5H-benzo[7]annulen-2-yl]-1H-pyrazolo[3,4-b]pyridin-3-yl}phenyl)pyridine-3-carboxamide]	< 100	< 100
c1ccc(-n2cc(-c3n[nH]c4ncc(-c5ccc6c(c5)CC[C@@H](N5C7COCC5C7)CC6)cc34)cn2)nc1 [Example 168, 6-[(7S)-2-{3-[1-(Pyridin-2-yl)-1H-pyrazol-4-yl]-1H-pyrazolo[3,4-b]pyridin-5-yl}-6,7,8,9-tetrahydro-5H-benzo[7]annulen-7-yl]-3-oxa-6-azabicyclo[3.1.1]heptane]	< 100	100 to 1000
Cn1cnnc1-c1ccc(-c2n[nH]c3ncc(-c4ccc5c(c4)CC[C@@H](N4C6COCC4C6)CC5)cc23)cc1 [Example 169, 6-[(7S)-2-{3-[4-(4-Methyl-4H-1,2,4-triazol-3-yl)phenyl]-1H-pyrazolo[3,4-b]pyridin-5-yl}-6,7,8,9-tetrahydro-5H-benzo[7]annulen-7-yl]-3-oxa-6-azabicyclo[3.1.1]heptane]	< 100	< 100

Results, then the compound that gave them:

IC50 [1] [nM]	IC50 [2] [nM]	Structure (SMILES)
< 100	100 to 1000	CN(C)C(=O)c1ccccc1-c1ccc(-c2c[nH]c3ncc(-c4ccc5c(c4)CC[C@@H](N4C6COCC4C6)CC5)cc23)cn1 [Example 170, N,N-Dimethyl-2-(5-{5-[(7S)-7-{3-oxa-6-azabicyclo[3.1.1]heptan-6-yl}-6,7,8,9-tetrahydro-5H-benzo[7]annulen-2-yl]-1H-pyrrolo[2,3-b]pyridin-3-yl}pyridin-2-yl)benzamide]
< 100	< 100	O=C(c1cccnc1-c1ccc(-c2c[nH]c3ncc(-c4ccc5c(c4)CC[C@@H](N4C6COCC4C6)CC5)cc23)cc1)N1CCCC1 [Example 171, 6-[(7S)-2-(3-{4-[3-(Pyrrolidine-1-carbonyl)pyridin-2-yl]phenyl}-1H-pyrrolo[2,3-b]pyridin-5-yl)-6,7,8,9-tetrahydro-5H-benzo[7]annulen-7-yl]-3-oxa-6-azabicyclo[3.1.1]heptane]
< 100	< 100	Cc1cccnc1-c1ccc(-c2c[nH]c3ncc(-c4ccc5c(c4)CC[C@@](C)(N4CCC[C@H]4C)CC5)cc23)cc1 [Example 172, 3-Methyl-2-(4-{5-[(7S)-7-methyl-7-[(2R)-2-methylpyrrolidin-1-yl]-6,7,8,9-tetrahydro-5H-benzo[7]annulen-2-yl]-1H-pyrrolo[2,3-b]pyridin-3-yl}phenyl)pyridine]
< 100	< 100	Cc1cccnc1-c1ccc(-c2c[nH]c3ncc(-c4ccc5c(c4)CC[C@@H](N4CCCC4)CC5)cc23)cc1 [Example 173, 3-Methyl-2-(4-{5-[(7S)-7-(pyrrolidin-1-yl)-6,7,8,9-tetrahydro-5H-benzo[7]annulen-2-yl]-1H-pyrrolo[2,3-b]pyridin-3-yl}phenyl)pyridine]
< 100	< 100	Cc1cncnc1-c1ccc(-c2n[nH]c3ncc(-c4ccc5c(c4)CC[C@@H](N4C6COCC4C6)CC5)cc23)cc1 [Example 174, 6-[(7S)-2-{3-[4-(5-Methylpyrimidin-4-yl)phenyl]-1H-pyrazolo[3,4-b]pyridin-5-yl}-6,7,8,9-tetrahydro-5H-benzo[7]annulen-7-yl]-3-oxa-6-azabicyclo[3.1.1]heptane]
< 100	< 100	Cc1nccnc1-c1ccc(-c2n[nH]c3ncc(-c4ccc5c(c4)CC[C@@H](N4C6COCC4C6)CC5)cc23)cc1 [Example 175, 6-[(7S)-2-{3-[4-(3-Methylpyrazin-2-yl)phenyl]-1H-pyrazolo[3,4-b]pyridin-5-yl}-6,7,8,9-tetrahydro-5H-benzo[7]annulen-7-yl]-3-oxa-6-azabicyclo[3.1.1]heptane]
< 100	< 100	Cc1ccnnc1-c1ccc(-c2n[nH]c3ncc(-c4ccc5c(c4)CC[C@@H](N4C6COCC4C6)CC5)cc23)cc1 [Example 176, 6-[(7S)-2-{3-[4-(4-Methylpyridazin-3-yl)phenyl]-1H-pyrazolo[3,4-b]pyridin-5-yl}-6,7,8,9-tetrahydro-5H-benzo[7]annulen-7-yl]-3-oxa-6-azabicyclo[3.1.1]heptane]
< 100	< 100	O=C1CCCN1c1cccnc1-c1ccc(-c2n[nH]c3ncc(-c4ccc5c(c4)CC[C@@H](N4C6COCC4C6)CC5)cc23)cc1 [Example 177, 1-[2-(4-{5-[(7S)-7-{3-Oxa-6-azabicyclo[3.1.1]heptan-6-yl}-6,7,8,9-tetrahydro-5H-benzo[7]annulen-2-yl]-1H-pyrazolo[3,4-b]pyridin-3-yl}phenyl)pyridin-3-yl]pyrrolidin-2-one]
< 100	< 100	c1cnc(-c2ccc(-c3c[nH]c4ncc(-c5ccc6c(c5)CC[C@@H](N5C7COCC5C7)CC6)cc34)cc2)c(C2CC2)c1 [Example 178, 6-[(7S)-2-{3-[4-(3-Cyclopropylpyridin-2-yl)phenyl]-1H-pyrrolo[2,3-b]pyridin-5-yl}-6,7,8,9-tetrahydro-5H-benzo[7]annulen-7-yl]-3-oxa-6-azabicyclo[3.1.1]heptane]
< 100	100 to 1000	c1cnc(-c2ccc(-c3n[nH]c4ncc(-c5ccc6c(c5)CC[C@@H](N5C7COCC5C7)CC6)cc34)cc2)c(C2CC2)c1 [Example 179, 6-[(7S)-2-{3-[4-(3-Cyclopropylpyridin-2-yl)phenyl]-1H-pyrazolo[3,4-b]pyridin-5-yl}-6,7,8,9-tetrahydro-5H-benzo[7]annulen-7-yl]-3-oxa-6-azabicyclo[3.1.1]heptane]
< 100	< 100	COCCOc1cccnc1-c1ccc(-c2n[nH]c3ncc(-c4ccc5c(c4)CC[C@@H](N4C6COCC4C6)CC5)cc23)cc1 [Example 180, 6-[(7S)-2-(3-{4-[3-(2-Methoxyethoxy)pyridin-2-yl]phenyl}-1H-pyrazolo[3,4-b]pyridin-5-yl)-6,7,8,9-tetrahydro-5H-benzo[7]annulen-7-yl]-3-oxa-6-azabicyclo[3.1.1]heptane]

Source: patent publication US12195482B1 (Arcus Biosciences, Inc., priority 2022, dated 2025)
